Reference: patent US12605350B2, “Composition for preventing, ameliorating, or treating disease caused by nitration of tyrosine in proteins comprising tyrosine as effective component” (INDUSTRY-ACADEMIC COOPERATION FOUNDATION GYEONGSANG …, priority 2020, dated 2026)

Tests used:
[1] = tested on: mouse PFC protein; experiment: inhibitory effect on in vitro nitration of mouse PFC protein induced by ONOO−; assay type: biochemical; details: mouse PFC protein treated with ONOO−
Text: By treating mouse PFC protein with ONOO^−, protein nitration was induced and the inhibitory effect on nitration by tyrosine was examined.

[2] = tested on: chronic immobilization stress group (STR); experiment: amount of glutamate, glutamine, tyrosine and GABA in PFC by LC-MS/MS; assay type: in vivo, mouse; details: stress group fed tyrosine diet, vs normal group
Text: The Amount of amino acids (glutamate, glutamine, tyrosine) and GABA in the PFC was quantified by liquid chromatography analysis (LC-MS/MS). PFC tissues were lysed first, and the tissue supernatant was collected and diluted with internal reference (L-Glu-d5) and mobile phase. The diluted sample was divided into 5 samples and injected to LC-MS/MS system (Agilent 6460). As for the column, SeQuant ZIC®-HILIC column (2.1×100 mm, 3.5 μm, 100 Å) was used, and, as a mobile phase, acetonitrile containing 0.1% formic acid was used, and the separation was made by using concentration gradient. For detecting the amino acids, multiple reaction monitoring and detection method was employed (m/z of Glu: 148→84, m/z of Gln: 147→84, m/z of GABA: 104→87, and m/z of internal reference: 153→88).

[3] = tested on: mouse model of chronic immobilization stress; experiment: object location recognition test (OLT); assay type: in vivo; details: D-Tyr-containing diet (181 mg D-Tyr/kg AIN-93G), chronic stress 14 days
Method: Twenty-eight C57BL/6 male mice (7-week old) were divided into two groups, each group provided for 1 week with a normal diet or D-tyrosine (D-Tyr)-containing diet (181 mg D-Tyr/kg AIN-93G).
Once the animals become 8-week old, they were applied with chronic immobilization stress (CIS) under light condition of 200 lux, 2 hours per day for 2 weeks. The animals were divided into the control group (CTL), D-Tyr diet control group (CTL+D-Tyr), chronic stress group (STR), and D-Tyr diet chronic stress group (STR+D-Tyr), in which each group consists of 7 animals.
Upon the completion of the CIS for 2 weeks, a cognitive function test was carried out. To compare the cognitive function between the group provided with D-Tyr-containing diet over the entire test period including habituation period and normal feed diet group, an object recognition test (ORT) and an object location recognition test (OLT) for testing long-term memory skills were carried out.
OLT: 24 Hours after carrying out ORT, location of a familiar object was changed, and the animal was allowed to explore for 5 minutes. According to the same method as the aforementioned object recognition function index (DI), ratio of time spent for exploring an object with changed location compared to the entire time for exploring an object was calculated. Accordingly, object location recognition function index was obtained.

[4] = tested on: IL-1β; experiment: IL-1β gene expression in kidney tissues (quantitative real-time PCR), renal ischemia and reperfusion; assay type: in vivo, mouse; details: L-tyrosine 100 mg/kg oral once a day for 4 days, 24 hours after ischemia and reperfusion
Method: C57BL/6 male mouse (23 to 25 g, KOATECH, South Korea) was allowed to have free access to diets and water in sterile breeding room with constant temperature and humidity. The animals were divided into 3 test groups, i.e., 1) Control group (Sham), 2) Renal ischemia having treatment with prepared solvent and induced reperfusion group (CMC+IR), and 3) Renal ischemia having treatment with L-tyrosine and induced reperfusion group (L-Tyr+IR).
L-Tyrosine (100 mg/kg) was suspended in 0.5% CMC (carboxymethyl cellulose). The animal was orally administered, once a day for 4 days, with L-tyrosine or the prepared solvent CMC. Thirty minutes after the oral administration on Day 4, renal ischemia was caused. Specifically, the animal abdomen was cut and renal pedicles at both sides were clamped using a Muller atraumatic vascular clamp to cause renal ischemia. After 25 minutes of blood ischemia, the clamp was removed followed by reperfusion. The control group (Sham) received the same operational procedures as above except the ischemia using clamp. […]
According to Trizol method, total RNA was extracted from kidney tissues, and cDNA was synthesized by using Revert Aid Reverse Transcription System (ThermoFisher). Quantitative PCR was carried out with CFX Connect Real-Time PCR system (Bio-Rad) by using iQ SYBR Green Super mix (Bio-Rad). […]

[5] = tested on: high-fat diet mouse model of type 2 diabetes; experiment: glucose tolerance test; assay type: in vivo; details: HFD+L-Tyr vs HFD; 16 hours fasting, glucose 2 g per 1 kg i.p., 30-120 minutes
Method: Twenty-seven C57BL/6 male mice (3-week old) were acclimated to the breeding condition for 1 week. […] Blood glucose was measured every week.
D-glucose was dissolved in 1×PBS to prepare 40% D-glucose solution. Blood glucose of a mouse, which has been subjected to fasting for 16 hours, was measured, and, for having intraperitoneal injection of glucose in an amount of 2 g per 1 kg bodyweight, the animal was intraperitoneally injected with the glucose solution according to the following Formula (1). Glucose injection amount(μl)=Bodyweight(g)×5 Formula (1)
For example, for a mouse with bodyweight of 45 g, 225 μl of 40% glucose solution were injected. After the intraperitoneal injection of glucose solution, blood glucose was measured at time points of 30, 60, 90 and 120 minutes.

[6] = tested on: animal model of acute hepatic encephalopathy caused by AOM; experiment: ammonia in blood, hepatic encephalopathy (hyperammonemia) caused by azoxymethane; assay type: in vivo, mouse; details: L-tyrosine 100 mg/kg oral once a day for 4 days, AOM 100 mg/kg i.p.
Method: C57BL/6 male mouse (13-week old, KOATECH, South Korea) was allowed to have free access to diets and water in sterile breeding room with constant temperature and humidity. The animals were divided into 3 test groups, i.e., (1) Control group (Control), (2) Carboxymethyl cellulose+azoxymethane treatment group (CMC+AOM), and (3) L-Tyrosine+AOM treatment group (L-Tyr+AOM). L-Tyrosine (100 mg/kg) was suspended in 0.5% CMC (carboxymethyl cellulose). The animal was orally administered, once a day for 4 days, with L-tyrosine or the prepared solvent CMC. Two hours after the oral administration on Day 4, intraperitoneal injection of AOM (100 mg/kg, […]) was carried out. To prevent dehydration, the animal was intraperitoneally injected with […] of physiological saline, 12 hours after the administration of AOM. Four hours after the injection, the test animal was sacrificed, blood was collected from the heart, and the liver tissues were harvested. Amount of ammonia in blood was measured by using PocketChem BA PA-4140 (Arkray, Japan), which is an analytical device based on single wavelength reflectometry. Specifically, blood was applied in an amount of 20 μl on a test strip followed by reaction for 3 minutes. The strip was then inserted to the measurement device to obtain the absorbance at a wavelength of 635 nm (LED), which was then expressed in unit of μg/dl.

| Structure (SMILES) | inhibitory effect on nitration of proteins [1] | amount of GABA in PFC [2] | amount of glutamate in PFC [2] | amount of glutamine in PFC [2] | amount of tyrosine in PFC [2] | cognitive function according to OTL (object location recognition function index) [3] | gene expression of IL-1β in kidney tissues [4] | blood glucose, glucose tolerance test [5] | blood ammonia [6] |
| --- | --- | --- | --- | --- | --- | --- | --- | --- | --- |
| N[C@@H](Cc1ccc(O)cc1)C(=O)O [tyrosine] | nitration of the proteins is inhibited in tyrosine concentration dependent manner | higher than the amount level of the normal group | higher than the amount level of the normal group | higher than the amount level of the normal group | higher than the amount level of the normal group | maintained at the level of the control group |  |  |  |
| N[C@@H](Cc1ccc(O)cc1)C(=O)O [L-tyrosine] |  |  |  |  |  |  | suppressed | statistically significant decrease in blood glucose amount | suppressed |
